In patent US20070191492A1, “Method for suppressing lung tumorigenesis” (Sumitomo Chemical Company, Limited, priority 2003, published 2007):

Test system: lung tumorigenesis
Test: multi-organ carcinogenesis model in rats: suppression of lung tumorigenesis (histopathological examination of lung)
Format: in vivo, male F344 rat
Details: for Frequency of Animals having Tumors, Adenoma (animals with tumor / animals in group) / Frequency of Animals having Tumors, Adenoma (percent) / Frequency of Animals having Tumors, Carcinoma (animals with tumor / animals in group) / Frequency of Animals having Tumors, Carcinoma (percent) / Frequency of Animals having Tumors, Sum of Tumors (animals with tumor / animals in group) / Frequency of Animals having Tumors, Sum of Tumors (percent) / Tumor Multiplicity, Carcinoma (average number of tumors per individual ± standard deviation) / Tumor Multiplicity, Adenoma (average number of tumors per individual ± standard deviation) / Tumor Multiplicity, Sum of Tumors (average number of tumors per individual ± standard deviation): lung, 23 weeks
Protocol: With respect to the compound 1 (13α, 14α-epoxy-3β-methoxyserratan-21β-ol) obtained in Example 1, activities for suppressing or inhibiting lung tumorigenesis were measured using a multi-organ carcinogenesis model in rats.
Diethylnitrosamine dissolved in saline was once administered interperitoneally to each male F344 rat at 6 weeks of age (Charles River Japan, Inc.) at a dose of 100 mg/kg body weight wherein this day was made to be day 1 of the testing. In succession, N-methyl-N-nitrosourea dissolved in saline was administered interperitoneally at a dose of 20 mg/kg body weight at day 4, 8, 11 and 15 of the testing (total four times of dosing). Furthermore, dimethylhydrazine dissolved in saline was administered subcutaneously at a dose of 40 mg/kg body weight at day 18, 22, 25, 29, 32 and 36 of the testing (total six times of dosing). In parallel with administration of these carcinogens, drinking water into which 0.05% N-butyl-N-(4-hydroxybutyl)nitrosamine was dissolved was allowed to ingest to the F344 rat from day 1 of the testing for the following four weeks. Thereafter, drinking water into which around 0.1% of 2, 2′-dihydroxy-di-n-propylnitrosamine was dissolved was allowed to ingest to the F344 rat for over two weeks from the beginning of week 5 to the end of week 6 of the testing. With respect to the F344 rat treated with a variety of carcinogens as described above, administration of the compound 1 was started from the beginning of week 8 of the testing. The compound 1 was dissolved into corn oil and forcibly administered orally into stomach using a sonde at a dose of 5 or 10 mg/kg body weight. The administration was implemented at a frequency of once a day, five days in a week, and continued for twenty three weeks. As a reference, untreated groups to which no compound 1 was administered were provided. After elapsed thirty weeks from starting the testing, each F344 rat had been sacrified to isolate a lung, and histopathological examination was conducted on the lung thus isolated. With respect to neoplastic lesions, they were classified into a benign or malignant lesion, and a number of animals each having a benign tumor or a malignant tumor and a number of tumors were counted in each group.

[1] = 5 mg/kg orally once a day, five days a week, examined after 30 weeks
[2] = treated group vs untreated group, in words

With “13α, 14α-epoxy-3β-methoxyserratan-21β-ol [Compound 1]” the “Frequency of Animals having Tumors, Adenoma (animals with tumor / animals in group)” value [1] was 11/20, the “Frequency of Animals having Tumors, Adenoma (percent)” value [1] was 55% and the “Frequency of Animals having Tumors, Carcinoma (animals with tumor / animals in group)” value (5 mg/kg orally, P < 0.05) was 1/20. For the same substance, the “Frequency of Animals having Tumors, Carcinoma (percent)” value (5 mg/kg orally, P < 0.05) was 5%, the “Frequency of Animals having Tumors, Sum of Tumors (animals with tumor / animals in group)” value (5 mg/kg orally, P < 0.05) was 11/20 and the Frequency of Animals having Tumors, Sum of Tumors (percent) (5 mg/kg orally, P < 0.05) was 55%. The “Tumor Multiplicity, Carcinoma (average number of tumors per individual ± standard deviation)” value (5 mg/kg orally, P < 0.05) was 0.05 ± 0.22, the “Tumor Multiplicity, Adenoma (average number of tumors per individual ± standard deviation)” value (5 mg/kg orally, p < 0.01) was 0.70 ± 0.80 and the “Tumor Multiplicity, Sum of Tumors (average number of tumors per individual ± standard deviation)” value (5 mg/kg orally, p < 0.01) was 0.75 ± 0.85. The “Frequency of Animals having Tumors, Adenoma (animals with tumor / animals in group)” value (10 mg/kg orally) was 12/19, the “Frequency of Animals having Tumors, Adenoma (percent)” value (10 mg/kg orally) was 67% and the “Frequency of Animals having Tumors, Carcinoma (animals with tumor / animals in group)” value (10 mg/kg orally) was 5/19. The “Frequency of Animals having Tumors, Carcinoma (percent)” value (10 mg/kg orally) was 28%, the “Frequency of Animals having Tumors, Sum of Tumors (animals with tumor / animals in group)” value (10 mg/kg orally) was 13/19 and the “Frequency of Animals having Tumors, Sum of Tumors (percent)” value (10 mg/kg orally) was 72%. For the same substance, the “Tumor Multiplicity, Carcinoma (average number of tumors per individual ± standard deviation)” value (10 mg/kg orally) was 0.29 ± 0.47, the “Tumor Multiplicity, Adenoma (average number of tumors per individual ± standard deviation)” value (10 mg/kg orally, P < 0.05) was 1.00 ± 1.00 and the “Tumor Multiplicity, Sum of Tumors (average number of tumors per individual ± standard deviation)” value (10 mg/kg orally, P < 0.05) was 1.22 ± 1.06. The “frequency of animals each having tumor (adenoma or carcinoma) compared with the untreated group” value [2] was “lower value” and the “tumor multiplicity (adenoma or carcinoma) compared with the untreated group” value [2] was “lower value”.
